Entries after “also recorded” stand apart in the source; their conditions may differ.
Assays:
[1] = system: chondrocytes of bovine origin; experiment: Proliferation of chondrocytes measured through DNA levels (alginate beads); format: cell-based; settings: 10 days culture in alginate beads; for effect on DNA levels per alginate bead (in words): 1, 5 and 10 mM, FIG. 1; for increase in DNA levels relative to the control (without compound): 10 mM
Method: Chondrocytes of bovine origin were isolated using digestion with collagenase following a previously described process (B. Beekman et al., Exp. Cell Res., 237, 135-141 (1997)).
The isolated bovine chondrocytes were cultured following a methodology described in the literature (J. DeGroot, et al., 266, 303-310 (2001)). The chondrocytes were transferred to an alginate support matrix, forming alginate beads which contain the cells at a concentration of 2.5×10^6 cells/ml, and DMEM (Dulbecco's Modified Eagle's Medium) with Glutamax was added to them supplemented with ascorbic acid, penicillin, streptomycin and FCS (foetal cow serum). After 24 hours, the medium was renewed and the chondrocytes contained in alginate beads (5 beads/well, with 250 μl of medium/well, in plates of 48 wells) were cultured in the absence (control) or presence of the compound to test (at concentrations of 1, 5 and 10 mM). The medium was regenerated twice a week. At the end of 10 days, the beads were collected (5 beads in each well, n=3 wells per condition) and they were stored at a temperature of −20° C. until making the analysis.
To quantify DNA levels, the beads were digested with papain and Hoechst 33258 (bisbenzimide) dye was used. DNA levels per alginate bead were determined.
(§1) The evaluation of the differences between all compounds and the control condition was assayed using analysis of variance (ANOVA). Then, the LSD test was performed to determine the difference between each compound and the control condition. They were considered statistically significant when p≦0.05.

[2] = system: bovine chondrocytes; experiment: Glycosaminoglycan content per chondrocyte (GAG with respect to DNA); format: cell-based; settings: for effect on GAGs levels per chondrocyte (in words): 5 and 10 mM, FIG. 4
Method: Bovine chondrocytes were used as starting point and the same methodology was followed as in Example 1 (chondrocyte proliferation measured through DNA levels), but in this case each compound was tested at two concentrations (5 and 10 mM).
The GAG content was determined, after digestion with papain, with the Blyscan™ assay (kit) from Biocolor Ltd.
as §1

[3] = system: chondrocytes of bovine origin; experiment: Release of glycosaminoglycans from the chondrocytes in alginate beads after stimulation with IL-1β; format: cell-based; settings: IL-1β 20 ng/ml, 48 hours; for effect on release of GAGs by the chondrocytes (in words): 10 mM, FIG. 2
Method: Chondrocytes of bovine origin were cultured for 21 days in alginate beads as support matrix; approximately 100 beads in 75 cm^2 culture dishes in 25 ml of medium, without adding the compounds to be tested. The medium was regenerated twice a week. After 21 days of culture, the beads were transferred to 48-well plates, 5 beads per well, 250 μl of medium per well. The compounds to be tested were added on day 21 (mannosamine hydrochloride, glucosamine hydrochloride and N-acetylglucosamine) to evaluate the effect on the degradation of the extracellular matrix after stimulation with IL-1β (20 ng/ml). Each compound was tested at concentrations of 1 and 10 mM. In each experiment each concentration was tested at n=3 wells, except in the control (n=8 wells). Once the alginate beads have been incubated with IL-1β (20 ng/ml) and the compounds during 48 hours, the culture medium was collected (day 21 to day 23). The GAGs content in the beads and in the culture medium on day 23 was measured (release of GAGs mediated by aggrecanase). The GAGs content was determined, after digestion with papain, with the Blyscan™ assay (kit) from Biocolor Ltd.
The results were expressed as a percentage of released GAGs with respect to total GAGs.
as §1

[4] = system: metalloprotease activity (MMP) of the chondrocytes; experiment: Metalloprotease activity of the chondrocytes in alginate beads after stimulation with IL-1β and activation with APMA; format: cell-based, bovine; settings: IL-1β 20 ng/ml, 1 mM APMA
Method: Bovine chondrocytes were used as starting point and the methodology of the Example 2 was followed, but in this case each compound was tested at two concentrations (5 and 10 mM).
The chondrocytes were cultured for 21 days in alginate to produce extracellular matrix. After 2 days of stimulation with IL-1β and with or without compounds, the medium was renewed. The metalloprotease activity was then determined in the culture medium after 2 hours of incubation with 20 ng/ml of IL-1β, 1 mM of APMA and with or without the compounds. The metalloprotease activity was quantified using the substrate for metalloproteases TNO 211-F (I. Tchetverikov et al., Clin. Exp. Rheumatol. 21, 711-8 (2003)).
as §1

SMILES	effect on DNA levels per alginate bead (in words) [1]	effect on GAGs levels per chondrocyte (in words) [2]	increase of GAG content per chondrocyte with respect to the control (culture without product) ([2]; 10 mM)	increase in DNA levels relative to the control (without compound) [1]	effect on release of GAGs by the chondrocytes (in words) [3]	effect on DNA levels per alginate bead (in words) ([1]; hydrochloride)	reduction of the release of GAGs with respect to the control (culture without compound) ([3]; upper concentration (10 mM))	reduction in metalloprotease activity with respect to the control ([4]; 10 mM)	effect on metalloprotease activity (in words) ([4]; 5 and 10 mM, FIG. 3)
CC(=O)N[C@H]1C(O)O[C@H](CO)[C@@H](O)[C@@H]1O (stereo partly shown) [N-acetylglucosamine, reference compound]	No significant effect	No significant effect	–	–	–	–	–	–	–
CC(=O)N[C@@H]1C(O)O[C@H](CO)[C@@H](O)[C@@H]1O (stereo partly shown) [N-acetylmannosamine]	–	dose-dependent increase in GAGs levels per chondrocyte	63%	–	–	–	–	–	–
Cl.N[C@H]1C(O)O[C@H](CO)[C@@H](O)[C@@H]1O (stereo partly shown) [glucosamine hydrochloride, reference compound]	dose-dependent increase in DNA levels	–	–	4 times	reduced the release of GAGs	–	–	–	–
Cl.N[C@@H]1C(O)O[C@H](CO)[C@@H](O)[C@@H]1O (stereo partly shown) [mannosamine hydrochloride]	–	–	–	10 times	reduced the release of GAGs	highest levels of DNA/bead; also recorded: dose-dependent increase in DNA levels	30%	30%	the only one which reduced metalloprotease activity

Reference: patent US20090317444A1, “PROCESS FOR CELL PROLIFERATION” (BIOBERICA, S.A., priority 2006, published 2009)
